Here are results for five compounds from patent publication US20100093794A1, “Use of a Compound in Obtaining Cytoskeleton Blockage and Cell Elongation” (priority 2006, published 2010).

Starred links: 1 amine or outer side, 2 acyl side, 3 side chain; linkers in the order of their positions; H or OH if unused. Positions of bridges follow the written chain, without caps; N, C: chain ends. Non-standard residues stand in square brackets, D forms with d. Residues, ends and D or L forms follow the SMILES beside them. Trp(2-yl) = O=C([C@H](Cc1c([*:3])[nH]c2ccccc12)N[*:1])[*:2]; Leu(4R-OH,5-OH) = C[C@](O)(CO)C[C@H](N)C(=O)O; cisHyp = O=C(O)[C@@H]1C[C@H](O)CN1

The subject of assay [1] is human A549 lung carcinoma cells. As to the kind of experiment: MTT assay (cytotoxicity). The class given is cell-based. The procedure:
(§1) The A549 cell line was derived from lung carcinoma of a person. The H1299 cell line has a homozygous deletion of the P53 gene that was derived from a non-small cell lung adenocarcinoma tumor. MCF-7 cell line was derived from breast adenocarcinoma of a person. Hela cell line was derived from cervical carcinoma of a person. These cell lines are cultured in RPMI-1640 medium supplemented with 10% fetal bovine serum, 100 units/ml penicillin, 100 ug/ml streptomycin, and L-glutamine (0.03%, w/v), and cells were incubated at 37° C. and 5% CO2.
(§2) Briefly, the cells were plated in 96-well plates at a density of 1×10^4 cells/well for 16-20 hours. Then the cells were treated with pt-262 for 24 hours in serum-free RPMI-1640 medium. After drug treatment, the cells were washed with phosphate-buffered saline (PBS), and were re-cultured in complete RPMI-1640 medium for 48 hours. Subsequently, the medium was replaced and the cells were incubated with 500 ug/ml MTT in complete RPMI-1640 medium for 4 hours. The surviving cells were dissolved in DMSO after removing the MTT medium, and was measured at 565 nm using a ELISA reader.
On the technique in general: Tetrazolium dyes change colour on reduction, which living cells bring about.

Assay [2] has as its system Hela cervical carcinoma cells. As to the kind of experiment: MTT assay (cytotoxicity). In kind it is cell-based, human. The procedure: as §1, §2
The subject of assay [3] is MCF-7 breast carcinoma cells. As to the kind of experiment: MTT assay (cytotoxicity). In kind it is cell-based, human. The method, then:
as §1, §2

In assay [4] the test system is A549 lung carcinoma cells. As to the kind of experiment: Cell growth assay. In kind it is cell-based, human. Particulars: 24 hours. The procedure:
as §1
The cells were plated at a density of 5×10^5 cells per p100 Petri dish for 16-20 hours. Then the cells were treated with PT-262 of different concentrations for 24 hours. After drug treatment, the cells were washed with PBS and re-treated with trypsin, the cells were suspended and were counted by a hemocytometer.

The subject of assay [5] is A549 lung carcinoma cells. As to the kind of experiment: Cell cycle analysis (flow cytometer). In kind it is cell-based, human. Particulars: 24 hours. The procedure:
as §1
(§3) The cells were plated at a density of 1×10^6 cells per p60 dish for 16-20 hours. Then the cells were treated with PT-262 for 24 hours. After drug treatment, the cells were washed with PBS and re-treated with trypsin, the cells were suspended and collected in a 15 ml centrifuge tube. After centrifugation at 1500 rpm for 5 minutes, the cells were fixed with 70% ethanol and stored at −20° C. for at least 2 hours. After being re-centrifuged at 1500 rpm for 5 minutes, the cell pellets were incubated with 4 ug/ml propidium iodine solution containing 1% Triton X-100 and 100 ug/ml RNase A for 30 minutes. The cell cycle was then analyzed by flow cytometer, and the percentage of cell cycle was quantified by ModFit Lt software (Ver. 2.0).
For orientation: A flow cytometer gives signals particle by particle.

Assay [6] concerns H1299 cells. As to the kind of experiment: Cell cycle analysis (flow cytometer). Particulars: 24 hours. The class given is cell-based. The procedure: as §1, §3
Assay [7] relates to Ras. As to the kind of experiment: Western blot. The class given is cell-based. Conditions: cancer cells; after treatment with PT-262. The method, then:
(§4) At the end of treatment, the cells were lysed in the cell extract buffer containing the protease inhibitors. Amounts of proteins in samples were subjected to electrophoresis using 10-12 sodium dodecyl sulfate-polyacrylamide gels. After electrophoretic transfer of proteins onto polyvinylidene difluoride (PVDF) membranes, the membranes were dipped in 5% degreased milk containing first antibody for 24 hours at 4° C. After being washed three times with TTBS buffer solution for 5-15 minutes at room temperature, the PVDF membranes are dipped in 5% degreased milk containing second antibody for 1-2 hours at room temperature. And then the membranes were re-washed three times with TTBS buffer solution for 5-15 minutes at room temperature. Finally, the protein bands were visualized using the enhanced chemiluminescence detection system.

Assay [8] concerns caspase-3. As to the kind of experiment: Western blot. The class given is cell-based. Particulars: cancer cells. The procedure:
as §4
(In general: In western blotting, separated proteins are transferred to a membrane and probed.)

For assay [9], the system named is cyclin B1. As to the kind of experiment: Western blot. The class given is cell-based. Conditions: cancer cells; 5-20 uM, 24 hours. The procedure:
as §4

The subject of assay [10] is phospho-ERK. As to the kind of experiment: Western blot. In kind it is cell-based. Conditions: cancer cells; after treatment with PT-262. The method, then:
as §4

Assay [11] deals with phospho-cdc2. As to the kind of experiment: Western blot. The class given is cell-based. Particulars: cancer cells; 5-20 uM, 24 hours. The procedure: as §4
Assay [12] deals with A549 lung carcinoma cells. As to the kind of experiment: Mitochondrial membrane potential (DiOC6, flow cytometer). Conditions: as the drug concentration increased, 24 hours. In kind it is cell-based, human. The procedure: The cells were cultured in 60-mm Petri dish at a density of 5×10^5 cells. Then the cells were treated with PT-262 of different concentrations for 24 hours. After drug treatment, the cells were washed with PBS and were trypsinized, the cells were suspended and were counted by a hemocytometer. The cells were collected by centrifugation, and the pellets were resuspended in 70% ethanol and stored at […]20° C. for at least 2 hours. After centrifugation, the pelts were incubated with 0.5 uM DiOC6 for 30 minutes. Then cell pellets were collected by centrifugation and resuspended in 0.5 ml ice-cold PBS. Finally, fluorescence intensities of DiOC6 were analyzed on a flow cytometer.

The test system of assay [13] is A549 lung carcinoma cells. As to the kind of experiment: Cytoskeleton staining and confocal microscope: cell elongation. In kind it is cell-based, human. The method, then:
(§5) The cells were cultured on coverslips kept in a p60 Petri dish, and the coverslips were kept in a CO2 incubator for 16-20 hours. After being treated with or without PT-262, the cells were fixed in 4% parafomaldehyde solution for 60 minutes at 37° C. Then the coverslips were washed three times with PBS. The F-actin and β-tubulin were stained with 20 U/ml BODIPY FL phallacidin and anti-β-tubulin Cy3 for 30 minutes at 37° C., respectively. Finally, the nuclei were stained with 2.5 ug/ml Hoechst 33258 for 30 minutes. And the cells were added with 80% Glycerin and sealed with nail varnish. The samples were examined under a Leica confocal laser scanning microscope.

Assay [14] deals with F-actin. As to the kind of experiment: Cytoskeleton staining and confocal microscope: actin filament (F-actin). In kind it is cell-based, human. The method, then:
as §5

The test system of assay [15] is Microtubule. As to the kind of experiment: Cytoskeleton staining and confocal microscope: microtubule (β-tubulin). Particulars: for red fluorescence intensity of β-tubulin: A549, 50 nM, 24 hours; for microtubule polymerization: comparison of cytoskeleton inhibitors. In kind it is cell-based, human. The procedure: as §5
Assay [16] deals with terminal cancer patients. Particulars: cited from earlier work.
The mark [17] stands for this setting: Homo sapiens, treatment for 24 hours, at cell viability of 50%.
Setting [18] is: lung carcinoma cells, comparison of cytoskeleton inhibitors.
Setting [19] is: comparison of cytoskeleton inhibitors.

Broadly, the IC50 is the concentration that inhibits the measured activity by half. Low readings indicate higher potency, high ones lower potency. For `O=C1C(N2CCCCC2)=C(Cl)C(=O)c2ncccc21` [PT-262, 7-chloro-6-piperidin-1-yl-quinoline-5,8-dione], the cell survival ratio entry in [1] (1-10 uM, 24 hours) was “decreased as the concentration increased”; in assay [2] (1-10 uM, 24 hours), “decreased as the concentration increased”; in assay [3] (1-10 uM, 24 hours), “decreased as the concentration increased”. Further, the half-inhibitory concentration (IC50) in [1] (setting [17]) was in the range of 2 to 4 µM; in assay [2] (setting [17]), 2 to 4 µM; in assay [3] (Homo sapiens, MCF7, treatment for 24 hours, at cell viability of 50%), 2 to 4 µM. In addition, the growth arrest entry in assay [4] (10 uM) is listed as “almost completely induced”. Moreover, in assay [4] (5-10 uM), the cell growth entry is recorded as “concentration-dependently inhibited”. In addition, the G0/G1 fractions result in assay [5] and in assay [6] was “decreased” in each case. Further, the G2/M fractions entry in assay [5] and in [6] was “increased” each time. For the same compound, the “expression level of Ras” value in assay [7] is on record as “decreased”. Also, the caspase-3 activation result in [8] is recorded as “noticeably induced”. Also, the “levels of cyclin B1 protein” value in assay [9] was “noticeably decreased”. The “expression level of phospho-ERK” value in [10] is “decreased”. Moreover, in [11], the “levels of phospho-cdc2 protein” value is on record as “noticeably decreased”. The Mitochondrial membrane potential entry in [12] is recorded as “noticeably inhibited”. For the same compound, the cell elongation result is on record as “induced” in [13] (A549, 2 uM) and “increased” in [13] (setting [18]). Further, the “cell length of some cells” value in assay [13] (A549, Leica confocal software) stood at 160 um. In assay [13] (A549, untreated 39.2 um, Leica confocal software), the average cell length worked out at 65.3 um. In assay [14] (A549, 2 uM), the F-actin polymerization entry is on record as “induced”. The actin polymerization result in assay [14] (setting [19]) is “induction”.
As to `COc1cc2c(c(OC)c1OC)-c1ccc(OC)c(=O)cc1[C@@H](NC(C)=O)CC2` [colchichine], the cell elongation result in [13] (setting [18]) is given as “didn't induce”. Further, in assay [15], the “red fluorescence intensity of β-tubulin” value is recorded as “reduced” and the microtubule polymerization entry is on record as “inhibiting”.
In the case of `C=C1[C@@H](C)[C@H]2[C@H](Cc3ccccc3)NC(=O)[C@]23OC(=O)/C=C/[C@H](O)CCC[C@@H](C)C/C=C/[C@H]3[C@@H]1O` [cytochalasin B, reference compound], the cell elongation result in assay [13] (setting [18]) is “didn't induce”. The actin polymerization result in assay [14] (setting [19]) is “prevented”.
In the case of `CC(=O)O[C@H]1C(=O)[C@@]2(C)[C@H]([C@H](OC(=O)c3ccccc3)[C@]3(O)C[C@H](OC(=O)[C@H](O)[C@@H](NC(=O)c4ccccc4)c4ccccc4)C(C)=C1C3(C)C)[C@]1(OC(C)=O)CO[C@@H]1C[C@@H]2O` [paclitaxel], in assay [13] (setting [18]), the cell elongation entry was “didn't induce”. In assay [15], the “red fluorescence intensity of β-tubulin” value was “increased” and the microtubule polymerization entry was “induced”. In addition, in assay [16] (40 terminal cancer patients), the suppression rate is on record as 30%. Also, the “patients reduced in tumor size by over 50%” value in assay [16] (of 40 terminal cancer patients) was 12.
Take `C[C@@H]1NC(=O)[C@H](C[C@@](C)(O)CO)NC(=O)[C@@H]2Cc3c([nH]c4ccccc34)SC[C@H](NC(=O)[C@@H]([C@H](C)O)NC1=O)C(=O)N1C[C@@H](O)C[C@H]1C(=O)N[C@@H](C)C(=O)N2` [phalloidin] (cyclo(A[dT]C[cisHyp]A[Trp(2-yl)][Leu(4R-OH,5-OH)]); thioether 3-6): the cell elongation result in assay [13] (A549, 24 hours) is “caused the cell elongation”. Moreover, the “green fluorescence intensity of F-actin” value in assay [14] (A549, 24 hours) is reported as “increased”. In addition, the actin depolymerization result in assay [14] (setting [19]) is “inhibit”.
